Reference: patent US4591637A, “Open chain-morpholino adriamycins” (priority 1985, dated 1986)
Where two headings read alike, the source gives them in different places.

Tests used:
[1] = test system: DNA synthesis in L-1210 Cells; test: inhibition of DNA synthesis in L1210 cells in vitro; type: cell-based; conditions: Mus musculus
Procedure: (§1) An in vitro test measured inhibition of DNA and RNA synthesis in L-1210 Cells in the method described by Tong, G., et al, J Med Chem (1976) 19:395. ED50 levels (the dose at which 50% inhibition occurs) were computed and ED50 ratios for DNA/RNA determined.
(§2) The compounds prepared in Examples 1-5 were tested for in vitro DNA and RNA synthesis inhibition activity and in vivo for ability to increase survival time in mice injected with P-388 leukemia cells as described above. The relative solubility in octanol and phosphate buffer, expressed as log10 p, was also determined, as well as the ΔTm of isolated helical DNA synthesized in the in vitro test.

[2] = test system: RNA synthesis in L-1210 Cells; test: inhibition of RNA synthesis in L1210 cells in vitro; type: cell-based; conditions: Mus musculus
Procedure: as §1, §2

isolated helical DNA = test: ΔTm of isolated helical DNA; type: binding
Procedure: as §2

physchem = type: physicochemical; conditions: octanol-phosphate buffer, pH 7.4
Procedure: as §2

P-388 leukemia = test: survival time of mice injected with P-388 leukemia cells; type: in vivo; conditions: mouse P388, qd 1, 10 mg/kg; T/C = treated survival time/untreated survival time×100
Procedure: Survival times and % T/C (treated survival time/untreated survival time×100) were determined, as well as dosage levels required.
The relative solubility in octanol and phosphate buffer, expressed as log10 p, was also determined, as well as the ΔTm of isolated helical DNA synthesized in the in vitro test.

[3] = L1210, read-out: L1210 cells inhib of synth, ED50, DNA
[4] = L1210, read-out: L1210 cells inhib of synth, ED50, RNA
[5] = read-out: log10 p, octanol-phosphate buffer at pH 7.4
[6] = L1210 cells, DNA synthesis, ED50 = dose at which 50% inhibition occurs, read-out: L1210 cells inhib of synth, ED50, DNA
[7] = L1210 cells, RNA synthesis, ED50 = dose at which 50% inhibition occurs, read-out: L1210 cells inhib of synth, ED50, RNA

SMILES | IC50 [1, 3] [nM] | IC50 [2, 4] [nM] | ΔTm of isolated helical DNA (isolated helical DNA) [°C] | logD (physchem; [5]) | IC50 [1, 6] [nM] | IC50 [2, 7] [nM] | logD (physchem) | Mouse P388 qd 1, % T/C (mg/kg) (P-388 leukemia) [% T/C]
COc1cccc2c1C(=O)c1c(O)c3c(c(O)c1C2=O)C[C@@](O)(C(=O)CO)C[C@@H]3O[C@H]1C[C@H](NCC#N)[C@H](O)[C@H](C)O1 [N--(cyanomethyl)-doxorubicin] | 1200 | 290 | 13.9 | – | – | – | – | –
COc1cccc2c1C(=O)c1c(O)c3c(c(O)c1C2=O)C[C@@](O)(C(C)=O)C[C@@H]3O[C@H]1C[C@H](NCC#N)[C@H](O)[C@H](C)O1 [N--(cyanomethyl)-daunorubicin, N-(cyanomethyl)daunorubicin] | 1750 | 820 | 11.7 | – | – | – | – | –
COCC(C#N)N[C@H]1C[C@H](O[C@H]2C[C@](O)(C(C)=O)Cc3c(O)c4c(c(O)c32)C(=O)c2c(OC)cccc2C4=O)O[C@@H](C)[C@H]1O (stereo partly drawn) [N--(1-cyano-2-methoxy-ethyl)daunorubicin, N-(1-cyano-2-methoxyethyl)Dau] | 510 | 510 | – | 2.64 | – | – | – | –
COCC(C#N)N[C@H]1C[C@H](O[C@H]2C[C@](O)(C(=O)CO)Cc3c(O)c4c(c(O)c32)C(=O)c2c(OC)cccc2C4=O)O[C@@H](C)[C@H]1O (stereo partly drawn) [N--(1-cyano-2-methoxy-ethyl)doxorubicin, N-(1-cyano-2-methoxyethyl)doxorubicin] | 800 | 400 | 12.5 | – | – | – | – | –
COc1cccc2c1C(=O)c1c(O)c3c(c(O)c1C2=O)C[C@@](O)(C(=O)CO)C[C@@H]3O[C@H]1C[C@H](N)[C@H](O)[C@H](C)O1 [Doxorubicin, doxorubicin, reference compound] | – | – | 12.8 | – | 1600 | 580 | 0.07 | 258
COc1cccc2c1C(=O)c1c(O)c3c(c(O)c1C2=O)C[C@@](O)(C(C)=O)C[C@@H]3O[C@H]1C[C@H](N)[C@H](O)[C@H](C)O1 [Daunorubicin, daunorubicin, reference compound] | – | – | 10.5 | 0.66 | 660 | 330 | – | –
